How the values were obtained:
[1] = biological target: 5'-AMP-activated protein kinase catalytic subunit alpha-1 (Homo sapiens, UniProt Q13131); assay: Selectivity interaction (KinomeScan (DiscoverX)) EUB0000655a PRKAA1; settings: at 10 µM
[2] = biological target: Dual specificity tyrosine-phosphorylation-regulated kinase 1B (Homo sapiens, UniProt Q9Y463); assay: Selectivity interaction (ProQinase) EUB0000171b DYRK1B
[3] = biological target: T1, Serine/threonine-protein kinase ULK1 (Homo sapiens) (UniProt O75385); assay: Selectivity interaction (ActivX KiNativ screen (kinase selectivity in THP-1 cell lysates)) EUB0000639a ULK1; type: subcellular; settings: lysate, at 1 µM
T1 sequence (whole entry): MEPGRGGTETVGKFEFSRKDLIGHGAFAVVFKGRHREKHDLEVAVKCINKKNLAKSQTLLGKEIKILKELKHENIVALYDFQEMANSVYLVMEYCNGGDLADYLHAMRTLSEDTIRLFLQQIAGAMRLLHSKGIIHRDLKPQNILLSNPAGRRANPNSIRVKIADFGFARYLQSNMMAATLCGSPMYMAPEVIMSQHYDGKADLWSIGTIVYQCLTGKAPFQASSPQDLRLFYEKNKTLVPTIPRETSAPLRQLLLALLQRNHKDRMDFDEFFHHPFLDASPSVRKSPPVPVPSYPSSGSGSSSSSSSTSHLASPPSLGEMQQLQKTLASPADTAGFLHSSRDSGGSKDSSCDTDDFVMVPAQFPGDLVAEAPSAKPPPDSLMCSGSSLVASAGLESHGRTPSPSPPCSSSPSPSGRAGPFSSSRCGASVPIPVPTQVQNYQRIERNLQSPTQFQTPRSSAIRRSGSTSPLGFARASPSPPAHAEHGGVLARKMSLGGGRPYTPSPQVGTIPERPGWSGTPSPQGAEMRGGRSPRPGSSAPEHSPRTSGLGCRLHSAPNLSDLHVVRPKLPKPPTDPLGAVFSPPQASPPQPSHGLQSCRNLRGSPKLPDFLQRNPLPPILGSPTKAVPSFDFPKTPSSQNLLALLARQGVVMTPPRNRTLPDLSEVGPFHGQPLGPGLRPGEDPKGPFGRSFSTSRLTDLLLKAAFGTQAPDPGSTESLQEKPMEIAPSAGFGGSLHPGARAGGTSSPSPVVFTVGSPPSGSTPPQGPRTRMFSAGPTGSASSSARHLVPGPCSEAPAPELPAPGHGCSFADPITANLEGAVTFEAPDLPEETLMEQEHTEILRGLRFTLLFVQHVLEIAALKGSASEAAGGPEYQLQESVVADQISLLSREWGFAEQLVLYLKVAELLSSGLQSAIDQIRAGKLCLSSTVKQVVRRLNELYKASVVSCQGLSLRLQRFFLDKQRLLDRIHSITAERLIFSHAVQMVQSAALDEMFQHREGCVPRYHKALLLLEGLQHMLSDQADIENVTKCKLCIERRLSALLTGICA

[4] = biological target: T2, Serine/threonine-protein kinase Nek2 (Homo sapiens) (UniProt P51955); assay: Selectivity interaction (SelectScreen profiling (Invitrogen)) EUB0000607a NEK2; settings: at 2 µM
T2 sequence (whole entry): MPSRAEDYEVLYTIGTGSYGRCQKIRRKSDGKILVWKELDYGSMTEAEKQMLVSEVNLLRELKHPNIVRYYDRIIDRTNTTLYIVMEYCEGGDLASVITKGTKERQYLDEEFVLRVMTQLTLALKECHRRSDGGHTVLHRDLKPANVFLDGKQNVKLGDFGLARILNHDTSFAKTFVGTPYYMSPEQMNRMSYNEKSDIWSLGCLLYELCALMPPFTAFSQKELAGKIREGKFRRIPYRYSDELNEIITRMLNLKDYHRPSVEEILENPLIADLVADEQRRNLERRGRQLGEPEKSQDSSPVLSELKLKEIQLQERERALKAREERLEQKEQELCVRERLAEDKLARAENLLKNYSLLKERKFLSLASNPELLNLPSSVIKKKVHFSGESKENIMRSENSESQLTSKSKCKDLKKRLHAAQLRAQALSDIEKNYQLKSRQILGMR

[5] = biological target: T3, Inhibitor of nuclear factor kappa-B kinase subunit alpha (Homo sapiens) (UniProt O15111); assay: Selectivity interaction (KinomeScan (DiscoverX)) EUB0001049a CHUK; settings: at 1 µM
T3 sequence (whole entry): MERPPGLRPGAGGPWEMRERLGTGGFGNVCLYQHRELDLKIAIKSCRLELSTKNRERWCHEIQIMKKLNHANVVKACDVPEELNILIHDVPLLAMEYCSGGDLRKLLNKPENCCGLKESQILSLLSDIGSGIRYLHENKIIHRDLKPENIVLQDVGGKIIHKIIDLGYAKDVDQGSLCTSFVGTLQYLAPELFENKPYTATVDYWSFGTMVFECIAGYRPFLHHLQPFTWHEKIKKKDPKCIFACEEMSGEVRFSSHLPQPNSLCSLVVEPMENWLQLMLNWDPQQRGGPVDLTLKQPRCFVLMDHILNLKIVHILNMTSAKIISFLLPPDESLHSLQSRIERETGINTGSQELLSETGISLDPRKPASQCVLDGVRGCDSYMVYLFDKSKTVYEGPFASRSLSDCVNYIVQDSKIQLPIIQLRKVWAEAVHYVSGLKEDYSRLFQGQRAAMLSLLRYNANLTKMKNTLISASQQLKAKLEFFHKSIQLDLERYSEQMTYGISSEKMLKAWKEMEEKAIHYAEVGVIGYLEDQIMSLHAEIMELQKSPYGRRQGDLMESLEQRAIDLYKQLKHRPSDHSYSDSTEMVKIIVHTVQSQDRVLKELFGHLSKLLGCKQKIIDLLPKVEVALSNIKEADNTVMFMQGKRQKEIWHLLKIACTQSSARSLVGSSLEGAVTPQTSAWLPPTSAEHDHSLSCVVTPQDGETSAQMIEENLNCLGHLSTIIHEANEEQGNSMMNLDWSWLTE

[6] = biological target: Mitogen-activated protein kinase kinase kinase 11 (Homo sapiens) (UniProt Q16584); assay: Selectivity interaction (KinomeScan (DiscoverX)) EUB0001049a MAP3K11; settings: at 1 µM
Chain of Mitogen-activated protein kinase kinase kinase 11 (Homo sapiens) (Q16584 whole entry, looked up): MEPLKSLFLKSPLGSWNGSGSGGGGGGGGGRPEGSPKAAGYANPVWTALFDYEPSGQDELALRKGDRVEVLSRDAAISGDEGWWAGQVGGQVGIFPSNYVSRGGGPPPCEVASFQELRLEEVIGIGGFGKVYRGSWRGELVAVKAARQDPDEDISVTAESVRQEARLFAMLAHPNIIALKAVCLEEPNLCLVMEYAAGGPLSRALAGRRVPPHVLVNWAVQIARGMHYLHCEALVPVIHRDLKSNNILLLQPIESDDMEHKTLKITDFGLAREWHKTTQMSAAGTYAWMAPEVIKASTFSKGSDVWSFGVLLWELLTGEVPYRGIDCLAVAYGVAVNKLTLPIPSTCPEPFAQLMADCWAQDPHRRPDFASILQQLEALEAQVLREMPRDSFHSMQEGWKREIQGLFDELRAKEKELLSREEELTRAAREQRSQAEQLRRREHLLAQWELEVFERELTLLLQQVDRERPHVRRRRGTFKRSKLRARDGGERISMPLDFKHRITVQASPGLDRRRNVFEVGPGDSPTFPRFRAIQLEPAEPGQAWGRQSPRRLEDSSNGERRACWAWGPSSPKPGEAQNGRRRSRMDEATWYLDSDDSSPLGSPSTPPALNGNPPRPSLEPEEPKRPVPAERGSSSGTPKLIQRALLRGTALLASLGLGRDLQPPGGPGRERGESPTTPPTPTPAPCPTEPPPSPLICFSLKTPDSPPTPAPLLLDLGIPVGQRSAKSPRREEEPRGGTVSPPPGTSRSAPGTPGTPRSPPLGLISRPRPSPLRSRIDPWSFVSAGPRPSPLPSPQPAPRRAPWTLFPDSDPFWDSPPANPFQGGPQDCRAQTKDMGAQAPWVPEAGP

[7] = biological target: Serine/threonine-protein kinase B-raf (Homo sapiens) (UniProt P15056); assay: Selectivity interaction (Kinase panel (Eurofins)) EUB0001564a BRAF; settings: at 1 µM
Chain of Serine/threonine-protein kinase B-raf (Homo sapiens) (P15056 whole entry): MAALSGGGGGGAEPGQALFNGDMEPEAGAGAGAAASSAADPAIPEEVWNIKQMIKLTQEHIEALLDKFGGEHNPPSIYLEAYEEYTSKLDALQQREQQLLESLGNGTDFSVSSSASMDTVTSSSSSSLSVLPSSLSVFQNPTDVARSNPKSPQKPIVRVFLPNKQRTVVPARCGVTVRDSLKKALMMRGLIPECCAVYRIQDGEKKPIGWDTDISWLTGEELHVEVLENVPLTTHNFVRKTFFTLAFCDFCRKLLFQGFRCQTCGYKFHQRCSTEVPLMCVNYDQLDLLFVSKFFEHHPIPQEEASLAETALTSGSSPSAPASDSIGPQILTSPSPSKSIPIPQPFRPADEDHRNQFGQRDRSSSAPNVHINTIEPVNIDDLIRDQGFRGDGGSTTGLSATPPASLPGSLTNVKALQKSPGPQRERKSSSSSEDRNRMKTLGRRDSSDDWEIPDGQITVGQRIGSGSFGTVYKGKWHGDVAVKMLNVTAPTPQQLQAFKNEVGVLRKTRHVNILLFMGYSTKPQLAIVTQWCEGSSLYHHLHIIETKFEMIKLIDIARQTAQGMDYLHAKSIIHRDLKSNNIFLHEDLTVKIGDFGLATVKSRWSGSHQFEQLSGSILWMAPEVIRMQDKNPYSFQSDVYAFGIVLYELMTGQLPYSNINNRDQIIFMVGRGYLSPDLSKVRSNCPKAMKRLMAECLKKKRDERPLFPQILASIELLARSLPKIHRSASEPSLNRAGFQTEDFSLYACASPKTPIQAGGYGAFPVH

Chain of Dual specificity tyrosine-phosphorylation-regulated kinase 1B (Q9Y463 whole entry, looked up): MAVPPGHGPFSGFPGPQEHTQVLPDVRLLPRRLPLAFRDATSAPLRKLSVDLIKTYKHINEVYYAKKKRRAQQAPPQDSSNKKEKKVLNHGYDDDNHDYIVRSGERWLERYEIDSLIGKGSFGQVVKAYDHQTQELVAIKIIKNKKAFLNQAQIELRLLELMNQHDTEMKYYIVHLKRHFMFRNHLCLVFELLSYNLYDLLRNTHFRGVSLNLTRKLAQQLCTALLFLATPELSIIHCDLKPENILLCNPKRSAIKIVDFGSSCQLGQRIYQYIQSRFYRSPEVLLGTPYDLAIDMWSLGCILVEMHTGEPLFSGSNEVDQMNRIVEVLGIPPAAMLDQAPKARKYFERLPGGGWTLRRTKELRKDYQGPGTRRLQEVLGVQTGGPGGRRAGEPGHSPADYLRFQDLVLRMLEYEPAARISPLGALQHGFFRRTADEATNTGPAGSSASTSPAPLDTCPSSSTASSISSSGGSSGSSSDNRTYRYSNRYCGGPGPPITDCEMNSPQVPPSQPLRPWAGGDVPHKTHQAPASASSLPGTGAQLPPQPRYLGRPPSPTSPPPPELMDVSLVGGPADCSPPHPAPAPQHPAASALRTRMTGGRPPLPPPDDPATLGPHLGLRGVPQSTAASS
Chain of 5'-AMP-activated protein kinase catalytic subunit alpha-1 (Q13131 whole entry, looked up): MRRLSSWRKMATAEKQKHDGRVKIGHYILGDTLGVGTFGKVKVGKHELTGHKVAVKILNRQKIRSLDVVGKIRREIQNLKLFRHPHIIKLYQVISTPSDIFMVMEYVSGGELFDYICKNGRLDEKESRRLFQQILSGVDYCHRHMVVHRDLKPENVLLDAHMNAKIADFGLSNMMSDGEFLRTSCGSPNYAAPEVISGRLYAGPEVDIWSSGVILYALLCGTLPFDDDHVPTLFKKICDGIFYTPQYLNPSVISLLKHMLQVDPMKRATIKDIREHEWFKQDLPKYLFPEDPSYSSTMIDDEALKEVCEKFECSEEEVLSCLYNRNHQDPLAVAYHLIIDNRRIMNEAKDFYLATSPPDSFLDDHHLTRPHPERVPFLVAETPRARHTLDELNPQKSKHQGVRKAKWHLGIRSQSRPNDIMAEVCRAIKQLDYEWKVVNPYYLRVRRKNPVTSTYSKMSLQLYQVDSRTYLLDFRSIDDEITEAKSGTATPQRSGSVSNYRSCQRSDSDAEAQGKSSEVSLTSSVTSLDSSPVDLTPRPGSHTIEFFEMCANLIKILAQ

With `CN(C)CCOc1ccc(-c2nc(-c3ccncc3)c(-c3ccc4c(c3)CC/C4=N\O)[nH]2)cc1` as the compound, how does the % of control [1] read?
Its % of control is 100%.

With `C=CC(=O)Nc1cccc(C(=O)Nc2ccc(Nc3cc(-c4[nH]c(SC)nc4C)ccn3)cc2)c1` as the compound, how does the % of control ([2]; at 1 µM) read?
Its % of control is 85%.

What about the % of control ([2]; at 5 µM) of the same compound?
The % of control was 53%.

How did the % of inhibition [3] turn out when `CC[C@@H]1[C@H](F)C(=O)N[C@@H]1COc1nccc2cc(C(N)=O)c(OC)cc12` [ZIMLOVISERTIB] was run?
The % of inhibition was -53.5%.

With `CNC(=O)Nc1ccc(-c2nc(N3CC4CCC(C3)O4)c3cnn(C4CCC5(CC4)OCCO5)c3n2)cc1` as the compound, how does the % of inhibition [4] read?
The % of inhibition was 10%.

What does the source list for `COc1cc(Nc2nc(C)cc(-c3cnn4nc(OC)ccc34)n2)cc(C(F)(F)F)c1`?
% of control [5]: 95%; % of control [6]: 79%

Which % of inhibition [7] does the source give for `CC[C@@H](Nc1c(C#N)c(-c2ccc(-c3cccc(C)c3F)cc2)nc2cnccc12)C(=O)O` [BAY-091] here?
Its % of inhibition is 23.5%.

Source: ChEMBL document CHEMBL5465560, “Selectivity Literature for EUbOPEN Chemogenomic Library” (2024)
